According to PubChem BioAssay (NCI):
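1) Cells in 96-well plates. 2) Compound, 48 h, 5 concentrations. 3) Linear interpolation between surrounding doses. 4) Unreached endpoint = highest concentration. At the GI50, growth is halved. TGI denotes the concentration required for complete inhibition of growth.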

Experiments:
Assay in all cases: NCI tumour cell line growth inhibition, 48 h
[1] = tested on: P388 leukemia
[2] = tested on: XF 498 CNS
[3] = tested on: P388/ADR leukemia
[4] = tested on: SN12K1 renal
[5] = tested on: MDA-N
[6] = tested on: MDA-MB-231 breast
[7] = tested on: 786-0 renal
[8] = tested on: LXFL 529 NSCLC
[9] = tested on: RXF-631 renal

CC(C)=CCC/C(C)=C/CCC1(C)C=Cc2c(c3ccccc3oc2=O)O1 (stereo not drawn)
TGI [1]: 52.6 µM | TGI [2]: 29.4 µM | TGI [3]: > 62.6 µM | TGI [4]: 30.7 µM

c1ccc2cc3c(cc2c1)OP1(Oc2cccc4cccnc24)(O3)Oc2cc3ccccc3cc2O1
TGI [1]: 4.57 µM | TGI [2]: 9.98 µM | TGI [3]: 6.73 µM | TGI [4]: 20.5 µM

OC1COC(OCc2ccccc2)C(O)C1O (stereo not drawn)
TGI [5]: > 100 µM | TGI [6]: > 100 µM | TGI [7]: > 100 µM

O=C(O)C12CC3CC(C1)C2C=C3P(=O)(O)O (stereo not drawn)
TGI [8]: > 100 µM

CC1SC(c2ccc(Cl)cc2)N(CCc2cccs2)C1=O (stereo not drawn)
GI50 [6]: 1.55 µM | TGI [6]: 3.28 µM

COCCOCOC(C)(C)[C@H](CCO)O[Si](c1ccccc1)(c1ccccc1)C(C)(C)C
TGI [9]: 21.7 µM | TGI [2]: 13.5 µM | TGI [8]: 21.6 µM

Cc1cccc(CNc2ncnc3[nH]ncc23)c1
TGI [5]: > 100 µM | TGI [6]: > 100 µM | TGI [7]: > 100 µM

C=CCNC(=O)CN(CC(=O)OC)C1CCCCC1N(CC(=O)OC)CC(=O)OC (stereo not drawn)
TGI [5]: > 100 µM | TGI [6]: > 100 µM

O=C1c2ccccc2C(=O)c2c1cc1c(c2[N+](=O)[O-])OCO1
GI50 [6]: 1.45 µM | TGI [6]: 6.79 µM

Cc1cn(C2CC(O)C(Cn3nncc3Cn3ncc(=O)[nH]c3=O)O2)c(=O)[nH]c1=O (stereo not drawn)
TGI [5]: > 100 µM | TGI [6]: > 100 µM

Nc1n[nH]c(CCCCCCCc2nc(N)n[nH]2)n1
TGI [8]: > 100 µM

COc1cc(C(=O)C2CC3(CCC2(O)c2cc(OC)c(OC)c(OC)c2)CC(=O)Nc2ccccc2C3=O)cc(OC)c1OC (stereo not drawn)
TGI [5]: > 100 µM | TGI [6]: > 100 µM

COc1cc(/C=C/C2=C(C#N)C(=O)OC2(C)C)ccc1O
TGI [9]: > 100 µM

Cc1c(C2=NN=C(N=Nc3c(O)cccc3O)/C2=C/c2ccccc2)c(=O)n(-c2ccccc2)n1C
TGI [1]: > 100 µM | TGI [2]: > 100 µM | TGI [3]: > 100 µM | TGI [4]: > 100 µM

CC(C)=CC(=O)OC1C2C(C)=CC(O)C(O)C2(C)C2C3(O)OCC24C(CC(=O)OC14)C(C)C3O (stereo not drawn)
TGI [1]: 0.0201 µM | TGI [2]: 0.587 µM | TGI [3]: 7.09 µM | TGI [4]: 0.0909 µM
